Test results as given in ChEMBL document CHEMBL1156642, “Discovery of betamethasone 17alpha-carbamates as dissociated glucocorticoid receptor modulators in the rat” (Bioorg Med Chem, 2008).
Active and inactive are the calls of the source. No cut-off for these calls is given here.

Legend:
Rattus norvegicus [1] = species: Rattus norvegicus; experiment: Transactivation activity of glutamine synthase in rat skeletal muscle cells relative to Dexamethasone; format: cell-based
[2] = molecular target: T1, Interstitial collagenase (Homo sapiens) (UniProt P03956); experiment: Inhibition of glucocorticoid-mediated human MMP1 expression in PMA stimulated A549 cells assessed as MMP1 protein level by ELISA relative to Dexamethasone; format: cell-based; set-up: scale not given: the % may be the effect or the level left
T1 sequence (whole entry): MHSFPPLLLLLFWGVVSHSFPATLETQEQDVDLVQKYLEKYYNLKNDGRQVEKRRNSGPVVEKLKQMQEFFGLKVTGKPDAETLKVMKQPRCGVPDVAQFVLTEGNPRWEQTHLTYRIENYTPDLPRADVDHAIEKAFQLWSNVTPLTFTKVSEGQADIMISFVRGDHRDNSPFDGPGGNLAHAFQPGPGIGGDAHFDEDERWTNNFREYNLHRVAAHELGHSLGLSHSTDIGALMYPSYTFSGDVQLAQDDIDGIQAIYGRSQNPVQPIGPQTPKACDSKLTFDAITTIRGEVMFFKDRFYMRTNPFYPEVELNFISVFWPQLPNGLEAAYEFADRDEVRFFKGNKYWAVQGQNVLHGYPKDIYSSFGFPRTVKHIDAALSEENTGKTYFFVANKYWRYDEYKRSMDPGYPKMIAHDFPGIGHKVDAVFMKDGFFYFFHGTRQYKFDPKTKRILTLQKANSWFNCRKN

Progesterone receptor = molecular target: T2, Progesterone receptor (Homo sapiens, UniProt P06401); experiment: Inhibition of human progesterone receptor
T2 sequence (P06401 whole entry): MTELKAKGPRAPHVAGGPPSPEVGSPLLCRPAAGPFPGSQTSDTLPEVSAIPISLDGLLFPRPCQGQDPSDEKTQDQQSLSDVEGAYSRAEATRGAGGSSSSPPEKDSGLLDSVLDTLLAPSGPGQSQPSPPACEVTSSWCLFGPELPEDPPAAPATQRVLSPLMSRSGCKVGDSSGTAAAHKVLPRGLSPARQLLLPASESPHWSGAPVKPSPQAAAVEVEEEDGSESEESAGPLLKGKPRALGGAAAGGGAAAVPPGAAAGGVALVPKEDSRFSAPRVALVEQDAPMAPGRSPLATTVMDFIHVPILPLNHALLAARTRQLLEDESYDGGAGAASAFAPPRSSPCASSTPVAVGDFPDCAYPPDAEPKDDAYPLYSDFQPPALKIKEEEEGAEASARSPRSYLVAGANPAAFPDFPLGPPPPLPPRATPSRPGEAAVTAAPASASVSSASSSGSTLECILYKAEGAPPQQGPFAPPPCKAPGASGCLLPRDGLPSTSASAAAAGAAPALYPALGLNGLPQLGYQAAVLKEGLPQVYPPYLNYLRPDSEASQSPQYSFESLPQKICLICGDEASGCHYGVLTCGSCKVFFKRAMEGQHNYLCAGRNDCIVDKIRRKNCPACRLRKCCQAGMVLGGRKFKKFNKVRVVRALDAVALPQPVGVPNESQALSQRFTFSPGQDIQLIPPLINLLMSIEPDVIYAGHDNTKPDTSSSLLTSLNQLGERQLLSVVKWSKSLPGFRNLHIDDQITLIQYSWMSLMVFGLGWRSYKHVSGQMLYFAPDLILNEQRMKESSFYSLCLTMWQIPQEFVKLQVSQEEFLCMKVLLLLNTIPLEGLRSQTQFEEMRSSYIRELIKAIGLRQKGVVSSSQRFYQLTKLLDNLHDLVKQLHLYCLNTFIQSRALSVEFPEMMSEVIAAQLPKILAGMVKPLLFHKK

Glucocorticoid receptor = molecular target: T3, Glucocorticoid receptor (Homo sapiens, UniProt P04150)
T3 sequence (P04150 whole entry): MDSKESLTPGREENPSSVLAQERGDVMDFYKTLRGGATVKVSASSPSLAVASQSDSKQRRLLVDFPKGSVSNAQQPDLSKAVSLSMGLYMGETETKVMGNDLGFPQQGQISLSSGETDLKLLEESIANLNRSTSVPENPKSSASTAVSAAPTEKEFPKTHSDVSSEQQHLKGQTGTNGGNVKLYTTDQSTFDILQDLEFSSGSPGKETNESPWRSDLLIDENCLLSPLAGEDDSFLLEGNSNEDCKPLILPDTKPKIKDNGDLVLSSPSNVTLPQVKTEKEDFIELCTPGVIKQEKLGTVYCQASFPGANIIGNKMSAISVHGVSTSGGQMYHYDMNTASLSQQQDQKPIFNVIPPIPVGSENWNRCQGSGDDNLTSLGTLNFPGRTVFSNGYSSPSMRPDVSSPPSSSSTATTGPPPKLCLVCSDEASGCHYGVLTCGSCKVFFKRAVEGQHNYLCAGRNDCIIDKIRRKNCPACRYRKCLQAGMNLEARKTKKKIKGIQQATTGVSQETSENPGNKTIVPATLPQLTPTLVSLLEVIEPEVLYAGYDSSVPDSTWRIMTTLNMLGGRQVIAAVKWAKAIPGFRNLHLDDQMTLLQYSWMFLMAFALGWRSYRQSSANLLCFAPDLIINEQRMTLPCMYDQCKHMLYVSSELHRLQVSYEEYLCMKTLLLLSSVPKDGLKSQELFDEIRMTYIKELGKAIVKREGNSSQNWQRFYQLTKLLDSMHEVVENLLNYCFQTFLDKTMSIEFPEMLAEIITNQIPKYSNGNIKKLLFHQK
Description: Inhibition of human glucocorticoid receptor

[3] = Transactivation activity of glutamine synthase in rat skeletal muscle cells; format: cell-based
Rattus norvegicus [4] = experiment: Effect on body weight change in Lewis rat with implanted cotton pellets at 10 mg/kg, po bid for 4 days; format: functional
Rattus norvegicus [5] = experiment: Effect on thymus weight in Lewis rat with implanted cotton pellets at 5.0 mg/kg, po bid; format: functional
Rattus norvegicus [6] = experiment: Effect on adrenal weight in Lewis rat with implanted cotton pellets at 5.0 mg/kg, po bid; format: functional
Rattus norvegicus [7] = experiment: Effect on plasma glucose level in Lewis rat with implanted cotton pellets at 10 mg/kg, po by oral glucose tolerance test; format: functional, organism-based; set-up: dose 10 mg/kg
Rattus norvegicus [8] = experiment: Effect on thymus weight in Lewis rat with implanted cotton pellets at 19 mg/kg, po bid; format: functional
Rattus norvegicus [9] = experiment: Effect on body weight change in Lewis rat with implanted cotton pellets at 5.0 mg/kg, po bid for 4 days; format: functional
Rattus norvegicus [10] = experiment: Effect on adrenal weight in Lewis rat with implanted cotton pellets at 10 mg/kg, po bid; format: functional
Rattus norvegicus [11] = experiment: Effect on adrenal weight in Lewis rat with implanted cotton pellets at 19 mg/kg, po bid; format: functional
Rattus norvegicus [12] = experiment: Effect on spleen weight in Lewis rat with implanted cotton pellets at 5.0 mg/kg, po bid; format: functional
Rattus norvegicus [13] = experiment: Inhibition of granuloma formation in cotton pellet implanted Lewis rat at 10 mg/kg, po bid; format: functional
Rattus norvegicus [14] = experiment: Effect on spleen weight in Lewis rat with implanted cotton pellets at 10 mg/kg, po bid; format: functional
Rattus norvegicus [15] = experiment: Effect on body weight change in Lewis rat with implanted cotton pellets at 10 mg/kg, po bid for 7 days; format: functional
Rattus norvegicus [16] = experiment: Effect on body weight change in Lewis rat with implanted cotton pellets at 19 mg/kg, po bid for 4 days; format: functional
Rattus norvegicus [17] = experiment: Inhibition of granuloma formation in cotton pellet implanted Lewis rat at 19 mg/kg, po bid; format: functional
Rattus norvegicus [18] = experiment: Effect on body weight change in Lewis rat with implanted cotton pellets at 19 mg/kg, po bid for 7 days; format: functional
Rattus norvegicus [19] = experiment: Effect on thymus weight in Lewis rat with implanted cotton pellets at 10 mg/kg, po bid; format: functional
Rattus norvegicus [20] = experiment: Effect on body weight change in Lewis rat with implanted cotton pellets at 5.0 mg/kg, po bid for 7 days; format: functional
Rattus norvegicus [21] = experiment: Effect on spleen weight in Lewis rat with implanted cotton pellets at 19 mg/kg, po bid; format: functional
Rattus norvegicus [22] = experiment: Inhibition of granuloma formation in cotton pellet implanted Lewis rat at 5.0 mg/kg, po bid; format: functional
Rattus norvegicus [23] = experiment: Effect on plasma glucose level in Lewis rat with implanted cotton pellets at 19 mg/kg, po by oral glucose tolerance test; format: functional, organism-based; set-up: dose 19 mg/kg

Row | Compound | Activity (Rattus norvegicus [1]) | Activity [2] | IC50 (Progesterone receptor) | IC50 (Glucocorticoid receptor) | other results
1 | C[C@H]1C[C@H]2[C@@H]3CCC4=CC(=O)C=C[C@]4(C)[C@@]3(F)[C@@H](O)C[C@]2(C)[C@@]1(OC(=O)NC1CCCCC1)C(=O)CO | 24.7% | 82% | 120 nM |  | 
2 | C[C@H]1C[C@H]2[C@@H]3CCC4=CC(=O)C=C[C@]4(C)[C@@]3(F)[C@@H](O)C[C@]2(C)[C@@]1(OC(=O)NC(C)(C)C)C(=O)CO | 64% | 94% |  | 2.4 nM | EC50 [3]: 0.37 nM
3 | C[C@H]1C[C@H]2[C@@H]3CCC4=CC(=O)C=C[C@]4(C)[C@@]3(F)[C@@H](O)C[C@]2(C)[C@@]1(OC(=O)NCC(C)(C)C)C(=O)CO |  | 44.7% |  | 352 nM | 
4 | C[C@H](NC(=O)O[C@]1(C(=O)CO)[C@@H](C)C[C@H]2[C@@H]3CCC4=CC(=O)C=C[C@]4(C)[C@@]3(F)[C@@H](O)C[C@@]21C)c1ccccc1 | 49% | 93% | 176 nM | 1.3 nM | EC50 [3]: 0.6 nM
5 | CCC(C)(C)NC(=O)O[C@]1(C(=O)CO)[C@@H](C)C[C@H]2[C@@H]3CCC4=CC(=O)C=C[C@]4(C)[C@@]3(F)[C@@H](O)C[C@@]21C | 35% | 65.9% |  | 55.1 nM | 
6 | CCCCNC(=O)O[C@]1(C(=O)CO)[C@@H](C)C[C@H]2[C@@H]3CCC4=CC(=O)C=C[C@]4(C)[C@@]3(F)[C@@H](O)C[C@@]21C | 31.3% | 98% |  | 2.8 nM | 
7 | CC(C)NC(=O)O[C@]1(C(=O)CO)[C@@H](C)C[C@H]2[C@@H]3CCC4=CC(=O)C=C[C@]4(C)[C@@]3(F)[C@@H](O)C[C@@]21C | 26% | 105% |  | 21.5 nM | 
8 | CCCNC(=O)O[C@]1(C(=O)CO)[C@@H](C)C[C@H]2[C@@H]3CCC4=CC(=O)C=C[C@]4(C)[C@@]3(F)[C@@H](O)C[C@@]21C | 34.7% | 103% | 394 nM | 3.6 nM | Activity (Rattus norvegicus [4]): 3.9 g; Activity (Rattus norvegicus [5]): 105.5 mg; Activity (Rattus norvegicus [6]): 34.7 mg; Activity (Rattus norvegicus [7]): Active; Activity (Rattus norvegicus [8]): 82.9 mg; Activity (Rattus norvegicus [9]): 1.1 g; Activity (Rattus norvegicus [10]): 34.6 mg; Activity (Rattus norvegicus [11]): 25.6 mg; Activity (Rattus norvegicus [12]): 296.1 mg; inhibition in vivo at 10 mg/kg (Rattus norvegicus [13]): 40%; Activity (Rattus norvegicus [14]): 274.3 mg; Activity (Rattus norvegicus [15]): 7.1 g; Activity (Rattus norvegicus [16]): 3.9 g; inhibition in vivo at 19 mg/kg (Rattus norvegicus [17]): 51%; Activity (Rattus norvegicus [18]): 6.6 g; Activity (Rattus norvegicus [19]): 91.4 mg; Activity (Rattus norvegicus [20]): 5 g; Activity (Rattus norvegicus [21]): 258 mg; inhibition in vivo at 5 mg/kg (Rattus norvegicus [22]): 32.7%; Activity (Rattus norvegicus [23]): Active
9 | C=CCNC(=O)O[C@]1(C(=O)CO)[C@@H](C)C[C@H]2[C@@H]3CCC4=CC(=O)C=C[C@]4(C)[C@@]3(F)[C@@H](O)C[C@@]21C | 16% | 106% | > 1000 nM | 17.4 nM | 
